Measurements: PubChem BioAssay AID1919003 (Molecular Pharmacology Branch, DTP, NCI, 2023)

Tested on: 786-0 complex spheroids with HUVEC/MSC, growth % test/control
Assay: Anticancer human tumor 786-0 cell line growth inhibition [AhR];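 note: compound exposure lasted seven days before the read-out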
Settings: for IC50: curve of first compound; for viability, T/C: stronger effect = lower value
Method in brief: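 Agents were dosed in half-log steps down from roughly clinical Cmax, or from 10 microM where Cmax was unknown, alone and with AhR antagonists. Read-out: percent test/control growth of tumor spheroids containing HUVEC and MSC stromal cells.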

[1] = second compound 0.1 µM, first compound 0.000949 µM
[2] = second compound 0.1 µM, first compound 0.003 µM
[3] = second compound 0.1 µM, first compound 0.00949 µM
[4] = second compound 0.1 µM, first compound 0.03 µM
[5] = second compound 0.1 µM, first compound 0.0949 µM
[6] = second compound 0.1 µM, first compound 0.3 µM
[7] = second compound 0.316 µM, first compound 0.000949 µM
[8] = second compound 0.316 µM, first compound 0.003 µM
[9] = second compound 0.316 µM, first compound 0.00949 µM
[10] = second compound 0.316 µM, first compound 0.03 µM
[11] = second compound 0.316 µM, first compound 0.0949 µM
[12] = second compound 0.316 µM, first compound 0.3 µM
[13] = second compound 1 µM, first compound 0.000949 µM
[14] = second compound 1 µM, first compound 0.003 µM
[15] = second compound 1 µM, first compound 0.00949 µM
[16] = second compound 1 µM, first compound 0.03 µM
[17] = second compound 1 µM, first compound 0.0949 µM
[18] = second compound 1 µM, first compound 0.3 µM
[19] = second compound 3.16 µM, first compound 0.000949 µM
[20] = second compound 3.16 µM, first compound 0.003 µM
[21] = second compound 3.16 µM, first compound 0.00949 µM
[22] = second compound 3.16 µM, first compound 0.03 µM
[23] = second compound 3.16 µM, first compound 0.0949 µM
[24] = second compound 3.16 µM, first compound 0.3 µM
[25] = second compound 10 µM, first compound 0.000949 µM
[26] = second compound 10 µM, first compound 0.003 µM
[27] = second compound 10 µM, first compound 0.00949 µM
[28] = second compound 10 µM, first compound 0.03 µM
[29] = second compound 10 µM, first compound 0.0949 µM
[30] = second compound 10 µM, first compound 0.3 µM

Question: Which results are given for `CC(C)CC(NC(=O)C(Cc1ccccc1)NC(=O)c1cnccn1)B(O)O` (stereo not given) + Cc1ccccc1N=Nc1ccc(NC(=O)c2ccnn2C)c(C)c1?
Answer: IC50 (second compound 0.1 µM): 18.3 nM; IC50 (second compound 0.316 µM): 17.9 nM; IC50 (second compound 1 µM): 17.4 nM; IC50 (second compound 3.16 µM): 17.6 nM; IC50 (second compound 10 µM): 17.2 nM; viability, T/C [1]: 96.9%; viability, T/C [2]: 103%; viability, T/C [3]: 103%; viability, T/C [4]: 11.9%; viability, T/C [5]: 0.85%; viability, T/C [6]: 0.51%; viability, T/C [7]: 103%; viability, T/C [8]: 110%; viability, T/C [9]: 98.6%; viability, T/C [10]: 10.4%; viability, T/C [11]: 4.46%; viability, T/C [12]: 0.43%; viability, T/C [13]: 106%; viability, T/C [14]: 107%; viability, T/C [15]: 92.4%; viability, T/C [16]: 11.7%; viability, T/C [17]: 0.98%; viability, T/C [18]: 2%; viability, T/C [19]: 98.9%; viability, T/C [20]: 96.1%; viability, T/C [21]: 104%; viability, T/C [22]: 7.1%; viability, T/C [23]: 0.92%; viability, T/C [24]: 0.45%; viability, T/C [25]: 104%; viability, T/C [26]: 106%; viability, T/C [27]: 80.3%; viability, T/C [28]: 21.8%; viability, T/C [29]: 1.78%; viability, T/C [30]: 1.25%

Question: Which results are given for `CCc1c2c(nc3ccc(O)cc13)-c1cc3c(c(=O)n1C2)COC(=O)[C@]3(O)CC` + Cc1ccccc1N=Nc1ccc(NC(=O)c2ccnn2C)c(C)c1?
Answer: IC50 (second compound 0.1 µM): 6.1 nM; IC50 (second compound 0.316 µM): 6.33 nM; IC50 (second compound 1 µM): 6.39 nM; IC50 (second compound 3.16 µM): 6.1 nM; IC50 (second compound 10 µM): 5.18 nM; viability, T/C [1]: 106%; viability, T/C [2]: 96.2%; viability, T/C [3]: 21.1%; viability, T/C [4]: 9.38%; viability, T/C [5]: 3.43%; viability, T/C [6]: 4.01%; viability, T/C [7]: 107%; viability, T/C [8]: 106%; viability, T/C [9]: 19.7%; viability, T/C [10]: 9.77%; viability, T/C [11]: 4.26%; viability, T/C [12]: 3.54%; viability, T/C [13]: 101%; viability, T/C [14]: 102%; viability, T/C [15]: 22.9%; viability, T/C [16]: 10.2%; viability, T/C [17]: 4.47%; viability, T/C [18]: 2.91%; viability, T/C [19]: 98.1%; viability, T/C [20]: 95.6%; viability, T/C [21]: 21.6%; viability, T/C [22]: 8.98%; viability, T/C [23]: 4.32%; viability, T/C [24]: 3.54%; viability, T/C [25]: 89.7%; viability, T/C [26]: 78.8%; viability, T/C [27]: 18.1%; viability, T/C [28]: 8.91%; viability, T/C [29]: 4.41%; viability, T/C [30]: 3.24%

Question: Which results are given for `COc1cc(Nc2ncc3c(n2)-c2ccc(Cl)cc2C(c2c(F)cccc2OC)=NC3)ccc1C(=O)O` + Cc1ccccc1N=Nc1ccc(NC(=O)c2ccnn2C)c(C)c1?
Answer: IC50 (second compound 0.1 µM): 4130 nM; IC50 (second compound 0.316 µM): 3610 nM; IC50 (second compound 1 µM): 3780 nM; IC50 (second compound 3.16 µM): 4820 nM; IC50 (second compound 10 µM): 5410 nM; viability, T/C (second compound 0.1 µM, first compound 0.0316 µM): 98.7%; viability, T/C (second compound 0.1 µM, first compound 0.1 µM): 109%; viability, T/C (second compound 0.1 µM, first compound 0.316 µM): 117%; viability, T/C (second compound 0.1 µM, first compound 1 µM): 84.7%; viability, T/C (second compound 0.1 µM, first compound 3.16 µM): 58.3%; viability, T/C (second compound 0.1 µM, first compound 10 µM): 30.1%; viability, T/C (second compound 0.316 µM, first compound 0.0316 µM): 107%; viability, T/C (second compound 0.316 µM, first compound 0.1 µM): 107%; viability, T/C (second compound 0.316 µM, first compound 0.316 µM): 133%; viability, T/C (second compound 0.316 µM, first compound 1 µM): 91.6%; viability, T/C (second compound 0.316 µM, first compound 3.16 µM): 55.1%; viability, T/C (second compound 0.316 µM, first compound 10 µM): 28.7%; viability, T/C (second compound 1 µM, first compound 0.0316 µM): 108%; viability, T/C (second compound 1 µM, first compound 0.1 µM): 109%; viability, T/C (second compound 1 µM, first compound 0.316 µM): 121%; viability, T/C (second compound 1 µM, first compound 1 µM): 89.2%; viability, T/C (second compound 1 µM, first compound 3.16 µM): 55.5%; viability, T/C (second compound 1 µM, first compound 10 µM): 30.2%; viability, T/C (second compound 3.16 µM, first compound 0.0316 µM): 95.8%; viability, T/C (second compound 3.16 µM, first compound 0.1 µM): 98.4%; viability, T/C (second compound 3.16 µM, first compound 0.316 µM): 103%; viability, T/C (second compound 3.16 µM, first compound 1 µM): 82.3%; viability, T/C (second compound 3.16 µM, first compound 3.16 µM): 63.2%; viability, T/C (second compound 3.16 µM, first compound 10 µM): 29.2%; viability, T/C (second compound 10 µM, first compound 0.0316 µM): 83.3%; viability, T/C (second compound 10 µM, first compound 0.1 µM): 85.3%; viability, T/C (second compound 10 µM, first compound 0.316 µM): 106%; viability, T/C (second compound 10 µM, first compound 1 µM): 91.8%; viability, T/C (second compound 10 µM, first compound 3.16 µM): 60.2%; viability, T/C (second compound 10 µM, first compound 10 µM): 38.2%
